Reference: patent US7799933B2, “Sulfonamide derivatives” (Hoffman-La Roche Inc., priority 2006, dated 2010)

Target: T1, L-CPT1 (human liver CPT1) (Homo sapiens, UniProt P50416)
T1 construct: made in house; host or cells: Pichia pastoris strain X-33 (pGAPZB/pGAPZA plasmids); crude cell-free extracts
T1 sequence (P50416 1-773): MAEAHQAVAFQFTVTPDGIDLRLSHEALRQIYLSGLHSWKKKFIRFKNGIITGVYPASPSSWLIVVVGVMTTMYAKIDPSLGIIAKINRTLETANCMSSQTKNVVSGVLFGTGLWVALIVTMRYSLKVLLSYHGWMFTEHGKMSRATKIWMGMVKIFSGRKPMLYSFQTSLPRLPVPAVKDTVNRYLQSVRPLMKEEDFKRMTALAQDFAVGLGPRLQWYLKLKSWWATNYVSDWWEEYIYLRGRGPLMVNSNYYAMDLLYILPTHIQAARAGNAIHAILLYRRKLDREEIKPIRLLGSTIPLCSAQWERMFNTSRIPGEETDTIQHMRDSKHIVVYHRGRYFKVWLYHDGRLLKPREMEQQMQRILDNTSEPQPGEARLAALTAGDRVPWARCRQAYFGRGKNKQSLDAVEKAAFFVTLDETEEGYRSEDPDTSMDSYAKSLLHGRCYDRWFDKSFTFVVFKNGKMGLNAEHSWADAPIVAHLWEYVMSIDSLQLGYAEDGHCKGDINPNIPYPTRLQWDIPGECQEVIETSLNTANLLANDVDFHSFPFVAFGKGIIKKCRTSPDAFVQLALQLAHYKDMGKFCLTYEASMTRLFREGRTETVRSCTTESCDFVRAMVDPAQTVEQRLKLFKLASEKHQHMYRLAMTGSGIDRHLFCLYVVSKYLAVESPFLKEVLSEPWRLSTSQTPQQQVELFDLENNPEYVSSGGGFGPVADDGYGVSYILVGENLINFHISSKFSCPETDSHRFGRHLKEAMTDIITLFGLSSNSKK
Experiment: L-CPT1 inhibition, spectrophotometric CPT activity assay with DTNB (Ellman's reagent)
Format: biochemical
Settings: human liver CPT1 expressed in P. pastoris, cell extracts; carnitine 500 μM, palmitoyl-CoA 80 μM, DTNB 300 μM, pH 7.4

IC50 [µM] | SMILES
0.125 | O=C(O)Cc1ccc(NC(=O)c2ccc3c(c2)N(S(=O)(=O)c2cccc(Cl)c2)CC3)cc1 [Example 7, (4-{[1-(3-Chloro-benzenesulfonyl)-2,3-dihydro-1H-indole-6-carbonyl]-amino}-phenyl)-acetic acid]
0.21 | COc1ccc(Cl)cc1S(=O)(=O)N1CCc2c(C)cc(C(=O)Nc3ccc(CC(=O)O)cc3)cc21 [Example 14, (4-{[1-(5-Chloro-2-methoxy-benzenesulfonyl)-4-methyl-2,3-dihydro-1H-indole-6-carbonyl]-amino}-phenyl)-acetic acid]
